Where two headings read alike, the source gives them in different places. Where no end group is shown, it is not given here.
How the values were obtained:
[1] = system: all of the tested bacterial strains; test: Geometric mean of MICs, all tested bacterial strains; type: cell-based; settings: for GM, All: geometric mean of MICs across all tested strains; for TI, All: therapeutic index TI = MHC/GM MIC
Summary of the method: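 Per strain, MIC came from absorbance at 492 nm after 24 h at 37°C (≥95% inhibition), using mid-log inoculum of 0.5–1 × 10^6 CFU mL^–1 in MHB and peptide diluted in 0.2% BSA. MBC (>99.9% killed) came from overnight agar plating, and values are geometric means across strains.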

MRSA 43300 = type: cell-based, methicillin-resistant S. aureus
Summary of the method: (§1)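 Inoculum: mid-log phase, MHB, 0.5–1 × 10^6 CFU mL^–1. Peptides: serial dilution in 0.2% BSA, equal volume. Incubation: 24 h, 37°C. Read-out: A492, MIC at 95% inhibition; MBC >99.9% kill after agar subculture.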

E. faecalis 29212 = type: cell-based, Enterococcus faecalis; settings: 29212, 24 h
Summary of the method: as §1

[2] = LPS binding assay (BODIPY-TR-cadaverine displacement); design: species or system Escherichia coli; settings: 1 h 37°C
Protocol: A BODIPY-TR-cadaverine (BC Sigma, United States) displacement assay was used to determine the abilities of the peptides to bind LPS ([Ma et al., 2015]); in this assay, a probe bound to cell-free LPS was self-quenched but fluoresced upon release into solution. The LPS from E. coli O111:B4 (50 μg/mL) was incubated with a BODIPY-TR-cadaverine (5 μg/mL) in Tris buffer (50 mM, pH 7.4) for 4 h. Subsequently, equal volumes of the LPS-probe solution and the peptides (1–64 μM) were incubated in a sterile 96-well black plate for 1 h at 37°C, and the fluorescence was measured on a spectrofluorophotometer (the Infinite 200 pro, Tecan, China) at excitation and emission wavelengths of 580 nm and 620 nm, respectively. Each test was performed independently in triplicate. The values were converted to %ΔF (AU) using the following equation:
where Fobs is the observed fluorescence at a given peptide concentration, F0 is the initial fluorescence of BC with LPS in the absence of peptides, and F100 is the BC fluorescence with LPS cells upon the addition of 10 μg mL^–1 polymyxin B, a prototype LPS binder serving as the positive control.

P. aeruginosa ATCC 27853 = type: cell-based, Pseudomonas aeruginosa; settings: after 30 sequential passages in sub-MBC concentrations
Protocol: Finally, P. aeruginosa ATCC 27853 was used as the model of the drug resistance study. […] The MBC values of the drugs against every two passage’s cells were tested. As a control, MBCs were also tested using cells that were serially passaged in fresh MHB without drugs. The assay was conducted independently in triplicate with three biological replicates.

Gram-positive bacteria = settings: for TI, Gram-positive bacteria: therapeutic index TI = MHC/GM MIC
Summary of the method: (§2)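 MIC is the lowest peptide concentration giving 95% growth inhibition, read at 492 nm after 24 h incubation at 37°C. Peptides were serially diluted in 0.2% BSA and added to mid-logarithmic cells at 0.5–1 × 10^6 CFU mL^–1 in MHB, following a modified NCCLS method, with more than 3 repeats.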

Gram-negative bacteria = settings: for TI, Gram-negative bacteria: therapeutic index TI = MHC/GM MIC
Summary of the method: as §2

S. aureus 29213 = type: cell-based, Staphylococcus aureus; settings: 29213, 24 h
Summary of the method: as §1

S. aureus 25923 = type: cell-based, Staphylococcus aureus; settings: 25923, 24 h
Summary of the method: as §1

E. coli ATCC 25922 = test: Salt sensitivity assay (MIC); type: cell-based, Escherichia coli; settings: for MIC, FeCl3: 4 μM FeCl3; for MIC, NH4Cl: 6 μM NH4Cl; for MIC, ZnCl2: 8 μM ZnCl2; for MIC, MgCl2: 1 mM MgCl2; for MIC, CaCl2: 2 mM CaCl2; for MIC, KCl: 4.5 mM KCl; for MIC, NaCl: 150 mM NaCl; for MIC, Control: no added salt, three independent assays
Summary of the method: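 Peptides diluted serially in 0.2% BSA solution were combined at identical volumes with mid-logarithmic E. coli ATCC 25922 in MHB (0.5–1 × 10^6 CFU mL^–1) in 96-well plates, with or without a physiological salt. Plates were incubated for 24 h at 37°C. MIC was the lowest concentration inhibiting 95% of growth, measured as absorbance at 492 nm on a microplate reader.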

B. subtilis 63501 = type: cell-based, Bacillus subtilis; settings: 63501, 24 h
Summary of the method: as §1

S. typhimurium 14028 = type: cell-based, Salmonella typhimurium; settings: 14028, 24 h
Summary of the method: as §1

S. typhimurium 7731 = type: cell-based, Salmonella typhimurium; settings: 7731, 24 h
Summary of the method: as §1

[3] = geometric mean of MICs (Table 3)

Row | Substance | GM, All [1] [µM] | TI, All [1] | MBC (E. faecalis 29212) [µM] | MIC (E. faecalis 29212) [µM] | resistance development (P. aeruginosa ATCC 27853) | TI, Gram-positive bacteria (Gram-positive bacteria) | TI, Gram-negative bacteria (Gram-negative bacteria) | MBC (S. aureus 29213) [µM] | MIC (S. aureus 29213) [µM] | MBC (S. aureus 25923) [µM] | MIC (S. aureus 25923) [µM] | MIC, FeCl3 (E. coli ATCC 25922) [µM] | MIC, NH4Cl (E. coli ATCC 25922) [µM] | MIC, ZnCl2 (E. coli ATCC 25922) [µM] | MIC, MgCl2 (E. coli ATCC 25922) [µM] | MIC, CaCl2 (E. coli ATCC 25922) [µM] | MIC, KCl (E. coli ATCC 25922) [µM] | MIC, NaCl (E. coli ATCC 25922) [µM] | MIC, Control (E. coli ATCC 25922) [µM] | MBC (B. subtilis 63501) [µM] | other results
1 | RLRLRLRLL-NH2 [L5] | 4.18 | 61.24 | 32 | 16 | minimal | 43.10 | 80.76 | 16 | 8 | 16 | 8 | 0.5 | 0.5 | 0.5 | 0.5 | 2 | 0.5 | 4 | 2 | 2 | MIC (MRSA 43300; MHB, 24 h 37°C, 95% growth inhibition): 8 µM; MBC (MRSA 43300; value in brackets, >99.9% of cells killed): 16 µM; LPS binding efficiency ([2]; at 16 μM peptide): ~80%; GM MIC (Gram-positive bacteria; geometric mean of MICs, 7 Gram-positive strains (Table 2)): 5.94 µM; GM MIC (Gram-negative bacteria; geometric mean of MICs, 9 Gram-negative strains (Table 2)): 3.17 µM; MIC (B. subtilis 63501): 1 µM; MBC (S. typhimurium 14028): 8 µM; MIC (S. typhimurium 14028): 4 µM; MBC (S. typhimurium 7731): 8 µM; MIC (S. typhimurium 7731): 4 µM
2 | RWRWRWRWW-NH2 [W5] | 2.38 | 107.56 | 8 | 4 | minimal | 128.00 | 94.12 | 4 | 2 | 4 | 2 | 4 | 4 | 4 | 2 | 4 | 4 | 4 | 2 | 2 | MBC (MRSA 43300; 43300, 24 h): 4 µM; MIC (MRSA 43300; 43300, 24 h): 2 µM; LPS binding efficiency ([2]; at 32 μM peptide): ~80%; GM, Gram-positive bacteria (Gram-positive bacteria; [3]): 2.00 µM; GM, Gram-negative bacteria (Gram-negative bacteria; [3]): 2.72 µM; MIC (B. subtilis 63501): 1 µM; MBC (S. typhimurium 14028): 8 µM; MIC (S. typhimurium 14028): 4 µM; MBC (S. typhimurium 7731): 8 µM; MIC (S. typhimurium 7731): 4 µM

From publication PMC7725003, “Systematically Studying the Optimal Amino Acid Distribution Patterns of the Amphiphilic Structure by Using the Ultrashort Amphiphiles” (Frontiers in Microbiology, 2020)
